Test [1] concerns the target T1, Protein mono-ADP-ribosyltransferase PARP3 (Homo sapiens, UniProt Q9Y6F1).
T1 sequence (Q9Y6F1 whole entry): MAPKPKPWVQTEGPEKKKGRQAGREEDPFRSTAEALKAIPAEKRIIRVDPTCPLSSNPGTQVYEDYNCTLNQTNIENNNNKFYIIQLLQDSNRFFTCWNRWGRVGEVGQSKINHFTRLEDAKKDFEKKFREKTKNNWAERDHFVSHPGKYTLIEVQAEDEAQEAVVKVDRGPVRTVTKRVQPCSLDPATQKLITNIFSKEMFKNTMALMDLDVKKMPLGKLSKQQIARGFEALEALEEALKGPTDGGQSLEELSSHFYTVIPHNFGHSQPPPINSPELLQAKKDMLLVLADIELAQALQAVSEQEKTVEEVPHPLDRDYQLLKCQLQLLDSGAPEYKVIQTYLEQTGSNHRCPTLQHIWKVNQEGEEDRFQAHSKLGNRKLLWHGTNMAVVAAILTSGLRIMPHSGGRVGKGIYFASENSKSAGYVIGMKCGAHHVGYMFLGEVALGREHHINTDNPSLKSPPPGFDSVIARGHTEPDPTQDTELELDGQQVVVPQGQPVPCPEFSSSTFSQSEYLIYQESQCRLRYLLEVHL
Nature of the test: Inhibition of recombinant human PARP3 using IRE-1 as substrate incubated for 1 hr by chemiluminescence assay.

Test [2] addresses T2, Protein mono-ADP-ribosyltransferase PARP16 (Homo sapiens, UniProt Q8N5Y8).
T2 sequence (Q8N5Y8 whole entry): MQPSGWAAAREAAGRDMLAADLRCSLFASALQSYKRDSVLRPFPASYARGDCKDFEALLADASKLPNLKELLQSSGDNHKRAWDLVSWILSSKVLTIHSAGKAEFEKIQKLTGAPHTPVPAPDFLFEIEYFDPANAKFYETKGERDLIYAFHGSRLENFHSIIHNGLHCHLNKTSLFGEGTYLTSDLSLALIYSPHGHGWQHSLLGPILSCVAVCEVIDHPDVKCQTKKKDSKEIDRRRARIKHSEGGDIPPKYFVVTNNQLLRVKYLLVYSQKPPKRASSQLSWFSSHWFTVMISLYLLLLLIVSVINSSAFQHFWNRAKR
In words: Inhibition of PARP16 (unknown origin) using IRE-1 as substrate incubated for 1 hr by chemiluminescence assay.

Test [3] addresses Protein mono-ADP-ribosyltransferase PARP9 (Homo sapiens, UniProt Q8IXQ6). Nature of the test: Inhibition of PARP9 (unknown origin).
Test [4] relates to NCI-H1373. In words: Antitumor activity against human NCI-H1373 cells in xenograft model assessed as tumor growth inhibition relative to control. The test is classed as functional. More on the design: scale not given: the % may be the effect or the level left.

One may read the IC50 as the concentration that inhibits the measured activity by half. Turning to `Nc1ncc2c(n1)CNC(=O)c1[nH]c(Br)c(Br)c1-2`, the figures for the IC50 in test [1] and in test [2] were 3.4 µM and 0.427 µM, respectively.

On to `C[C@@H](COCCC(=O)N1CCN(c2ncc(C(F)(F)F)cn2)CC1)Nc1cn[nH]c(=O)c1C(F)(F)F` [ATAMPARIB], for which the IC50 in test [3] is more than 50 µM. For the same compound, the Activity in test [4] was 49%.

The values are drawn from ChEMBL document CHEMBL5120882, “Medicinal Chemistry Perspective on Targeting Mono-ADP-Ribosylating PARPs with Small Molecules” (J Med Chem, 2022).
